Reference: the supplement of paper PMC10307832

What was measured:
Experiment in all cases: relative viability (nuclei count vs DMSO), 5 days (fraction); higher = more cells survive
[1] = compound: Cc1nc(NC(=O)N2CCC[C@H]2C(N)=O)sc1-c1ccnc(C(C)(C)C(F)(F)F)c1 [Alpelisib] + C[C@@H](Oc1cc(-c2cnn(C3CCNCC3)c2)cnc1N)c1c(Cl)ccc(F)c1Cl [Crizotinib] (partner 1 µM)
In short: (§1)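 The day after seeding in 1536-well plates, lung cancer cell lines were treated by pin tool with a single drug, or with a fixed anchor-drug dose together with five library-drug doses (not always all listed) in √10 steps. After 5 days, a combined fix-and-stain solution (final 0.05% Triton X-100, 1% formaldehyde, 1 ug/ml Hoechst) was added. Nuclei counted on 4× images gave relative viability as treated counts over vehicle counts, reported as the median of duplicate plates.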

[2] = compound: CCCS(=O)(=O)Nc1ccc(F)c(C(=O)c2c[nH]c3ncc(-c4ccc(Cl)cc4)cc23)c1F [Vemurafenib] + C[C@@H](Oc1cc(-c2cnn(C3CCNCC3)c2)cnc1N)c1c(Cl)ccc(F)c1Cl [Crizotinib] (partner 1 µM)
In short: as §1

[3] = compound: CCCS(=O)(=O)Nc1ccc(F)c(C(=O)c2c[nH]c3ncc(-c4ccc(Cl)cc4)cc23)c1F [Vemurafenib] + COc1cccc2cc(-c3nc([C@H]4CC[C@H](C(=O)O)CC4)n4ncnc(N)c34)[nH]c12 [OSI-027] (partner 0.5 µM)
In short: as §1

[4] = compound: Cc1nc(NC(=O)N2CCC[C@H]2C(N)=O)sc1-c1ccnc(C(C)(C)C(F)(F)F)c1 [Alpelisib] + C[C@]1(O)C[C@@H](c2nc(-c3ccc4ccc(-c5ccccc5)nc4c3)c3c(N)nccn32)C1 [Linsitinib] (partner 1 µM)
In short: as §1

SW 1573
relative viability ([1]; first compound 0.04 µM): 0.867
relative viability ([1]; first compound 0.1265 µM): 0.784
relative viability ([1]; first compound 0.4 µM): 0.689
relative viability ([1]; first compound 1.265 µM): 0.649
relative viability ([1]; first compound 4 µM): 0.593
relative viability ([2]; first compound 0.03162 µM): 0.628
relative viability ([2]; first compound 0.1 µM): 0.941
relative viability ([2]; first compound 0.3162 µM): 1.01
relative viability ([2]; first compound 1 µM): 0.722
relative viability ([3]; first compound 0.03162 µM): 0.582
relative viability ([3]; first compound 0.1 µM): 0.591
relative viability ([3]; first compound 0.3162 µM): 0.564
relative viability ([3]; first compound 1 µM): 0.464
relative viability ([4]; first compound 0.04 µM): 0.919
relative viability ([4]; first compound 0.1265 µM): 0.826
relative viability ([4]; first compound 0.4 µM): 0.725
relative viability ([4]; first compound 1.265 µM): 0.685
relative viability ([4]; first compound 4 µM): 0.547
